The record followed here is article PMC3223204, “Implantation Serine Proteinase 1 Exhibits Mixed Substrate Specificity that Silences Signaling via Proteinase-Activated Receptors” (PLoS ONE, 2011).

In series [1] the target is T1, recombinant ISP1 (Mus musculus, UniProt Q924N9).
T1 construct: Myc (C); His6 (C); made in house; host or cells: Pichia pastoris SMD1168
T1 sequence (Q924N9 31-274 limits assumed): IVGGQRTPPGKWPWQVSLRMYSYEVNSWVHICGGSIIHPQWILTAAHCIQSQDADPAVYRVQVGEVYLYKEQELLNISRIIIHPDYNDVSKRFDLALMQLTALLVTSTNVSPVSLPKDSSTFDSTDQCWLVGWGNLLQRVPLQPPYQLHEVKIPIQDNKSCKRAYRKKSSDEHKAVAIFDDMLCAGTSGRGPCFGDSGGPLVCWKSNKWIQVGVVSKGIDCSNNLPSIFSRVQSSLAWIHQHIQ
Put plainly: Chromogenic substrate kinetics of recombinant ISP1. Format: biochemical. To be noted: for Hydrolysis of chromogenic substrate by rISP1: result in words; for Michaelis Menton Constant (Km) / Turnover No. (kcat) / Km: substrate of recombinant ISP1, 25 mM Tris.Cl pH 8.0, room temperature; for Turnover No. (kcat): [E] 6.5 uM; for Km: read-out: Michaelis Menton Constant (Km). The protocol: (§1) p-Nitroanilide substrates, Valine-Proline-Arginine-Amino methyl coumarin (VPR-AMC), Benzamidine Hydrochloride, TLCK (N -p-tosyl-L-lysine chloromethyl ketone), APMSF (4-Amidino-Phenyl)-Methane-Sulfonyl Fluoride), Trypsin Soybean Inhibitor (TSI) and Gabexate mesylate were obtained from Sigma Aldrich and Co. Oakville, ON Canada. Chromogenic assays were performed using the p-Nitroanilide/methyl-naphthylamide conjugated peptidic substrates. The reaction conditions used were: 25 mM Tris.Cl (pH 8.0) buffer with 10 mM EDTA reaction buffer, in a total reaction volume of 0.5 mL including varying concentrations of the substrates and enzyme sample. The reactions were done at room temperature in a glass cuvette (1 cm path length), and scanned at wavelength of 405 nm (in case of p-nitroanilide conjugated substrates) and 540 nm (in case of methyl-naphthylamide substrates) using a spectrophotometer. 1 Unit of enzyme is defined as the amount of enzyme capable of the breakdown of 1 micromole of substrate/min.
(§2) The catalytic activity of recombinant ISP1 with various small chromogenic peptide substrates was characterized by measuring enzyme cleavage at differing substrate concentrations and plotting enzyme activity [V] vs. substrate concentration [S] and calculating Michaelis Menten constant (Km). The Km was calculated using the Michaelis Menten equation (Km = [S] at ½ Vmax). Sigma plot was used for plotting the values obtained and determining Michaelis Menten Constant (Km). Inhibition of proteolytic activity of recombinant ISP1 was determined by measuring enzyme activity in the presence of varying concentrations of serine proteinase inhibitors. 2 mM BAPNA and 150 uM VPR-AMC were employed for enzyme assays in these inhibition studies. Sigma plot was used for plotting the values obtained in order to determine dissociation constant (Ki). Enzyme concentration [E] used for these experiments was 6.5 uM. This value was employed for calculating turnover number (kcat) and enzyme efficiency represented by kcat/Km ratio.

For series [2], the target named is T1, recombinant ISP1. As to the kind of experiment: Inhibition of recombinant ISP1 by general serine proteinase inhibitors. Format: biochemical. To be noted: for Effect on enzyme activity of rISP1: 2 mM BAPNA as well as 150 µM VPR-AMC as substrate, result in words; for Ki: read-out: Ki (Apparent Ki). The protocol: as §1, §2

“Also recorded” adds a separate entry of the source. Counter-ions that a name gives are not always drawn. Like-named read-outs stand apart in the source and are kept apart here. Non-standard residues stand in square brackets, D forms with d. Residues, ends and D or L forms follow the SMILES beside them. *: point of attachment. pNA = O=[N+]([O-])c1ccc(N*)cc1; Tos = Cc1ccc(S(=O)(=O)*)cc1; Bz = O=C(c1ccccc1)*

On to `C[C@H](N)C(=O)Nc1ccc([N+](=O)[O-])cc1` [Alanine p-nitroanilide], for which, on recombinant ISP1 [1], the “Hydrolysis of chromogenic substrate by rISP1” value (“Hydrolysis” for short) is on record as “no reaction”, the “Michaelis Menton Constant (Km)” value is recorded as “Nil” and the “Turnover No. (kcat)” value was “Nil”.
As for `N=C(N)c1ccccc1` [Benzamidine Hydrochloride], the “Effect on enzyme activity of rISP1” value at recombinant ISP1 [2] was “no noticeable effect”. In addition, the “Ki (Apparent Ki)” value on recombinant ISP1 [2] (substrate BAPNA (2 mM)) is given as “No inhibition”.
For the molecule `CC(C)C[C@H](NC(=O)[C@@H](NC(=O)N[C@@H](Cc1ccccc1)C(=O)O)[C@@H]1CCN=C(N)N1)C(=O)N[C@H](C=O)Cc1ccccc1` [Chymostatin], the “Effect on enzyme activity of rISP1” value on recombinant ISP1 [2] is recorded as “inhibited the enzyme activity”; on recombinant ISP1 [2] (listed as chymostatin), “strong inhibitory activity”. For the same molecule, the Ki at recombinant ISP1 [2] (substrate BAPNA (2 mM)) worked out at 220 µM.
Regarding `CCOC(=O)c1ccc(OC(=O)CCCCCN=C(N)N)cc1.CS(=O)(=O)O` [Gabexate mesylate], the “Effect on enzyme activity of rISP1” value at recombinant ISP1 [2] is recorded as “inhibited the enzyme activity”; at recombinant ISP1 [2] (listed as gabexate mesylate), “strong inhibitory activity”. The Ki on recombinant ISP1 [2] (substrate BAPNA (2 mM)) was found to be 1700 µM.
Turning to `CC(=O)N[C@@H](CC(C)C)C(=O)N[C@@H](CC(C)C)C(=O)N[C@H](C=O)CCCNC(=N)N` [Leupeptin], the “Effect on enzyme activity of rISP1” value on recombinant ISP1 [2] is “no noticeable effect”. Moreover, at recombinant ISP1 [2] (substrate BAPNA (2 mM)), the “Ki (Apparent Ki)” value was “No inhibition”.
For the molecule `CC(=O)O.Cc1ccc(S(=O)(=O)NCC(=O)N2CCC[C@H]2C(=O)N[C@@H](CCCCN)C(=O)Nc2ccc([N+](=O)[O-])cc2)cc1` [N(p-tosyl)-glycine-proline-lysine p-nitroanilide acetate] (Tos-Gly-Pro-Lys-pNA), at recombinant ISP1 [1], the “Hydrolysis” value is “no enzyme activity”, the “Michaelis Menton Constant (Km)” value is on record as “Nil” and the “Turnover No. (kcat)” value is “Nil”.
One may read the Km as the concentration of substrate that gives half-maximal velocity. In the case of `Cl.N=C(N)NCCC[C@H](NC(=O)c1ccccc1)C(=O)Nc1ccc([N+](=O)[O-])cc1` [N-Benzoyl Argininep-nitroanilide (BAPNA), N-Benzoyl-L- arginine p-nitroanilide hydrochloride], on recombinant ISP1 [1], the “Hydrolysis” value was “hydrolyzed”, the “Turnover No. (kcat)” value is 2.2 s⁻¹ and the Km amounted to 610 µM.
For `CC[C@H](C)[C@H](NC(=O)c1ccccc1)C(=O)N[C@@H](Cc1ccccc1)C(=O)N[C@@H](CCCCN)C(=O)Nc1ccc([N+](=O)[O-])cc1.Cl` [N-Benzoyl-isoleucine-phenylalanine-lysine p-nitroanilide hydrochloride] (Bz-Ile-Phe-Lys-pNA), in that order: “hydrolyzed”, 3.9 s⁻¹ and 9600 µM.
Take `CC(C)[C@H](NC(=O)[C@H](Cc1ccccc1)NC(=O)c1ccccc1)C(=O)N[C@@H](CCCNC(=N)N)C(=O)Nc1ccc([N+](=O)[O-])cc1.Cl` [N-Benzoyl-phenylalanine-valine-arginine p-nitroanilide hydrochloride] (Bz-Phe-Val-Arg-pNA): at recombinant ISP1 [1], the “Hydrolysis” value is on record as “hydrolyzed”, the “Turnover No. (kcat)” value worked out at 0.14 s⁻¹ and the Michaelis constant (Km) stood at 360 µM.
For the molecule `COc1cc(NC(=O)C(CCCNC(=N)N)NC(=O)C(CCCNC(=N)N)NC(=O)C(CCCNC(=N)N)NC(=O)OCc2ccccc2)cc2ccccc12` (stereo not shown) [N-CBZ-arginine-arginine-arginine-4-methoxy naphthylamide], on recombinant ISP1 [1], the “Hydrolysis” value is on record as “hydrolyzed”, the “Turnover No. (kcat)” value came out at 0.7 s⁻¹ and the Km came out at 99 µM. Moreover, the Michaelis constant (Km) at recombinant ISP1 [1] (listed as RRRmN) is ~100 µM.
`C[C@H](NC(=O)CCC(=O)O)C(=O)N[C@@H](C)C(=O)N[C@@H](C)C(=O)Nc1ccc([N+](=O)[O-])cc1` [N-Succinyl-alanine-alanine-alanine p-nitroanilide]: on recombinant ISP1 [1], the “Hydrolysis” value is listed as “no reaction”, the “Michaelis Menton Constant (Km)” value is recorded as “Nil” and the “Turnover No. (kcat)” value is on record as “Nil”.
Take `O=S(=O)(F)Cc1ccccc1` [PMSF]: the “Effect on enzyme activity of rISP1” value at recombinant ISP1 [2] was “inhibited the enzyme activity; also recorded: strong inhibitory activity”. Further, the Ki at recombinant ISP1 [2] (substrate VPR-AMC (0.15 mM)) is 340 µM.
On the same counts, the results for `Cc1ccc(S(=O)(=O)N[C@@H](CCCCN)C(=O)CCl)cc1` [TLCK, N -p-tosyl-L-lysine chloromethyl ketone] are “inhibited the enzyme activity; also recorded: strong inhibitory activity” and 30 µM.
As to `CC(C)C[C@H](NC(=O)[C@H](N)C(C)C)C(=O)N[C@@H](CCCCN)C(=O)Nc1ccc([N+](=O)[O-])cc1.Cl` [Valine-Leucine-Lysinep-nitroanilide, H-D-valine-leucine-lysine p-nitroanilide hydrochloride] (H-[dV]-Leu-Lys-pNA), on recombinant ISP1 [1], the “Hydrolysis” value is given as “no enzyme activity”, the “Michaelis Menton Constant (Km)” value is “Nil” and the “Turnover No. (kcat)” value was “Nil”.
As to `CC(C)[C@H](N)C(=O)N[C@@H](Cc1ccccc1)C(=O)N[C@@H](CCCCN)C(=O)Nc1ccc([N+](=O)[O-])cc1` [Valine-Phenylalanine-Lysine p-nitroanilide] (H-Val-Phe-Lys-pNA), on recombinant ISP1 [1], the “Hydrolysis” value is “no enzyme activity”, the “Michaelis Menton Constant (Km)” value is listed as “Nil” and the “Turnover No. (kcat)” value is on record as “Nil”.
Turning to Aprotinin, the “Effect on enzyme activity of rISP1” value in the series with recombinant ISP1 [2] is recorded as “no noticeable effect”. For the same molecule, the “Ki (Apparent Ki)” value on recombinant ISP1 [2] (substrate BAPNA (2 mM)) is “No inhibition”.
With “α-1-Antitrypsin: general serine proteinase inhibitor”, the “Effect on enzyme activity of rISP1” value with recombinant ISP1 [2] is “inhibited the enzyme activity”; with recombinant ISP1 [2] (listed as α-1 antitrypsin), “strong inhibitory activity”. The Ki with recombinant ISP1 [2] (substrate BAPNA (2 mM)) was determined as 2 µM.

B1: Recombinant human SLPI: recombinant human Secretory Leukocyte Protease Inhibitor (protein, UniProt P03973 26-132, looked up)
Antileukoproteinase: SGKSFKAGVCPPKKSAQCLRYKKPECQSDWQCPGKKRCCPDTCGIKCLDPVDTPNPTRRKPGKCPVTYGQCLMLNPPNFCEMDGQCKRDLKCCMGMCGKSCVSPVKA
With B1, the “Effect on enzyme activity of rISP1” value with recombinant ISP1 [2] is on record as “no noticeable effect”. Moreover, the “Ki (Apparent Ki)” value in the series with recombinant ISP1 [2] (substrate BAPNA (2 mM)) was “No inhibition”.

B2: Soybean Trypsin Inhibitor: general serine proteinase inhibitor (protein, UniProt P01070 25-205, looked up)
Trypsin inhibitor A: DFVLDNEGNPLENGGTYYILSDITAFGGIRAAPTGNERCPLTVVQSRNELDKGIGTIISSPYRIRFIAEGHPLSLKFDSFAVIMLCVGIPTEWSVVEDLPEGPAVKIGENKDAMDGWFRLERVSDDEFNNYKLVFCPQQAEDDKCGDIGISIDHDDGTRRLVVSKNKPLVVQFQKLDKESL
For B2, the “Effect on enzyme activity of rISP1” value is reported as “inhibited the enzyme activity” with recombinant ISP1 [2] and “strong inhibitory activity” with recombinant ISP1 [2] (listed as trypsin soybean inhibitor). Also, the Ki in the series with recombinant ISP1 [2] (substrate BAPNA (2 mM)) came to 2.4 µM.
